Measurements published in paper PMC10165357, “Brain p3‐Alcβ peptide restores neuronal viability impaired by Alzheimer's amyloid β‐peptide” (EMBO Molecular Medicine, 2023).
Ends that are not written are not given here.

Assays:
[1] = system: Aβo-induced Ca2+ influx in mouse primary neurons; test: Aβ42 oligomer-induced Ca2+ influx, Fluo 4-AM (Fig 3A, 3B, 4A, 4D, EV2A, EV2B); type: cell-based; conditions: neurons div 14, Aβo 5.2 μM
[2] = system: Ca2+ influx in mouse primary neurons; test: Ca2+ influx after CaCl2 administration in Ca2+-depleted medium, Fluo 4-AM (Fig 3C, 3D, 4C); type: cell-based; conditions: neurons div 11–14, CaCl2 2 mM, D-AP5 5, 50 and 200 μM; AUC 5–14 min; n = 6
Protocol: All animal studies were conducted in compliance with the ARRIVE guidelines. The mouse study was approved by the Animal Studies Committee of Hokkaido University (#18‐0168). WT C57BL/6J (CLEA, Japan, Inc), Alcβ‐KO (RBRC11514) (Gotoh et al, [2020]), App ^ NL‐F/NL‐F (RBRC06343), and App ^ NL‐G‐F/NL‐G‐F (RBRC06344) (Saito et al, [2014]) mice were housed in specific pathogen‐free (SPF) conditions with a microenvironment vent system (Allentown Inc., Allentown, NJ, USA) under a 12 h/12 h light/dark cycle with free access to food and water. Three to five male or female siblings were housed in each cage; cages were equipped with microbarrier tops. All experimental procedures with Cynomolgus monkeys were approved by the Animal Care and Use Committee of Shiga University of Medical Science and were carried out in accordance with approved guidelines (Nishimura et al, [2012]). Stored frozen pieces of the cerebral cortex of monkeys were used. Sprague–Dawley rats (8‐week‐old) were purchased from Japan SLC Inc. (Hamamatsu, Japan) and housed with their littermates. […] All animal protocols and related experiments were approved by the Ethics Committees of the Central Research Laboratory at Hamamatsu Photonics and Hamamatsu University School of Medicine. […]

mitochondrial activity = conditions: ref Singh et al, 2017; cited from earlier work
Excerpt: Therefore, we would like to re‐emphasize that the function of p3‐Alcβ is to increase neuronal viability and to protect neurons against Aβ‐induced toxicity, and that the target of p3‐Alcβ may not directly be Aβ peptide and Aβ aggregates/plaques. This property of p3‐Alcβ as a druggable candidate for AD therapy is likely to be distinct from immunotherapies that use anti‐Aβ antibodies. Furthermore, the fu ...

[3] = WT mice, s.c. injection 5 mg/kg, n = 4 per time point
Excerpt: IgG was purified with antigen‐coupled resin and conjugated to biotin. Horseradish peroxidase‐conjugated streptavidin was purchased from Amersham/GE Healthcare (Cat #RPN1051, Little Chalfont, UK), and the tetramethyl benzidine (TMB) microwell peroxidase substrate system was obtained from SeraCare Life Sciences Inc. (Cat #5120‐0075, Milford, MA, USA). Mice were then anesthetized with 1% isoflurane, CSF was collected from the cisterna magna as described previously (Liu & Duff, [2008]), and mice were then sacrificed. […] The sensitivity of this ELISA is equivalent to that of other sELISA systems used to quantify p3‐Alcβ37 and p3‐Alcβ40 (Hata et al, [2019]). Antiserum diluted 1:10,000 was used as a capture antibody in the sELISA. The antibody was affinity‐purified with antigen‐coupled resin, and biotin‐labeled IgG was then used as the detection antibody.

[4] = Alcβ-KO mice, subcutaneous administration

NC(CCCP(=O)(O)O)C(=O)O (stereo not drawn) [D‐AP5]
Aβo-induced Ca2+ entry with NMDA antagonist (Fig 4A) ([1]; D-AP5 50 μM, AUC 5–29 min, n = 4): suppressed | suppression of Aβo-triggered Ca2+ influx, single agents (Fig 4D) ([1]; p3-Alcβ9-19 50 μM or D-AP5 50 μM, AUC 5–28 min, n = 12): suppressed significantly | Ca2+ influx after Ca2+ administration with D-AP5 (Fig 4C) [2]: slightly, but not significantly, reduced

CC12CC3CC(C)(C1)CC(N)(C3)C2 [memantine]
mitochondrial activity (mitochondrial activity): does not increase mitochondrial activity

HRGHQPPPEMA [p3‐Alcβ9‐19]
transfer into the brain, p3-Alcβ9-19 levels in CSF by sELISA [3]: successful transfer

VLSSQQFLHRGHQPPPEMAGHSLASSHRNSMIPSAAT [p3‐Alcβ37]
transport into the brain [4]: transported into the brain
